Experiments:
[1] = tested on: Puccinia recondita f. sp. tritici; experiment: Fungicidal activity against Puccinia recondita f. sp. tritici / wheat / leaf disc preventative (brown rust); type: in vivo; conditions: foliar, 168 h, wheat leaf segments cv. Kanzler, inoculated 1 day after application, assessed 7-9 days after application, compared to untreated control
Procedure, shortened: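 Wheat leaf segments (cv. Kanzler) on water agar sprayed with compound diluted from DMSO stock in water/0.025% Tween20, then inoculated with P. recondita spores 1 day later. Incubated at 19 °C, 75% rh, 12 h light/dark. Percent disease control versus untreated assessed 7-9 days after application.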

[2] = tested on: Puccinia recondita f. sp. tritici; experiment: Fungicidal activity against Puccinia recondita f. sp. tritici / wheat / leaf disc curative (brown rust); type: in vivo; conditions: foliar, 144 h, wheat leaf segments cv. Kanzler, applied 1 day after inoculation, assessed 6-8 days after application, compared to untreated control
Method: Leaf disks or leaf segments of various plant species are cut from plants grown in a greenhouse. The cut leaf disks or segments are placed in multiwell plates (24-well format) onto water agar. The leaf disks are sprayed with a test solution before (preventative) or after (curative) inoculation. Compounds to be tested are prepared as DMSO solutions (max. 10 mg/ml) which are diluted to the appropriate concentration with 0.025% Tween20 just before spraying. The inoculated leaf disks or segments are incubated under defined conditions (temperature, relative humidity, light, etc.) according to the respective test system. A single evaluation of disease level is carried out 3 to 14 days after inoculation, depending on the pathosystem. Percent disease control relative to the untreated check leaf disks or segments is then calculated. Wheat leaf segments cv. Kanzler are placed on agar in multiwell plates (24-well format). The leaf segments are inoculated with a spore suspension of the fungus. Plates are stored in darkness at 19° C. and 75% rh. The formulated test compound diluted in water is applied 1 day after inoculation. The leaf segments are incubated at 19° C. and 75% rh under a light regime of 12 h light/12 h darkness in a climate cabinet and the activity of a compound is assessed as percent disease control compared to untreated when an appropriate level of disease damage appears in untreated check leaf segments (6-8 days after application).

[3] = tested on: Glomerella lagenarium (Colletotrichum lagenarium); experiment: Fungicidal activity against Glomerella lagenarium (Colletotrichum lagenarium), liquid culture / cucumber / preventative (anthracnose); type: cell-based; conditions: Colletotrichum orbiculare, liquid culture (PDB), growth inhibition measured photometrically 3-4 days after application, compared to untreated control
Procedure, shortened: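 Glomerella lagenarium conidia in potato dextrose broth were exposed in 96-well plates to test compound diluted from DMSO stock with 0.025% Tween20 and incubated at 24 °C. Growth inhibition was read photometrically 3–4 days after application, as percent activity relative to untreated check.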

[4] = tested on: Phakopsora pachyrhizi; experiment: Fungicidal activity against Phakopsora pachyrhizi / soybean / leaf disc preventative (Asian soybean rust); type: in vivo; conditions: foliar, 288 h, soybean leaf disks, inoculated one day after application, assessed 12-14 days after application, compared to untreated control
Method: Leaf disks or leaf segments of various plant species are cut from plants grown in a greenhouse. The cut leaf disks or segments are placed in multiwell plates (24-well format) onto water agar. The leaf disks are sprayed with a test solution before (preventative) or after (curative) inoculation. Compounds to be tested are prepared as DMSO solutions (max. 10 mg/ml) which are diluted to the appropriate concentration with 0.025% Tween20 just before spraying. The inoculated leaf disks or segments are incubated under defined conditions (temperature, relative humidity, light, etc.) according to the respective test system. A single evaluation of disease level is carried out 3 to 14 days after inoculation, depending on the pathosystem. Percent disease control relative to the untreated check leaf disks or segments is then calculated. Soybean leaf disks are placed on water agar in multiwell plates (24-well format) and sprayed with the formulated test compound diluted in water. One day after application leaf discs are inoculated by spraying a spore suspension on the lower leaf surface. After an incubation period in a climate cabinet of 24-36 hours in darkness at 20° C. and 75% rh leaf disc are kept at 20° C. with 12 h light/day and 75% rh. The activity of a compound is assessed as percent disease control compared to untreated when an appropriate level of disease damage appears in untreated check leaf disks (12-14 days after application).

Row | melting point | Compound | pest or weed control at 200 ppm [1] | pest or weed control at 200 ppm [2] | inhibition of growth at 20 ppm [3] | pest or weed control at 200 ppm [4]
1 | 59 to 63 °C | COCC1=NOC(c2ccc(-c3noc(C(F)(F)F)n3)cc2)C1 (stereo not drawn) [Compound A-9, 3-[4-[3-(methoxymethyl)-4,5-dihydroisoxazol-5-yl]phenyl]-5-(trifluoromethyl)-1,2,4-oxadiazole] | ≥ 80% | ≥ 80% | ≥ 80% | ≥ 80%
2 | 178 to 180 °C | CC1(C)CN=C(c2ccc(-c3noc(C(F)(F)F)n3)cc2)O1 [Compound A-21, 3-[4-(5,5-dimethyl-4H-oxazol-2-yl)phenyl]-5-(trifluoromethyl)-1,2,4-oxadiazole] | ≥ 80% | ≥ 80% | ≥ 80% | ≥ 80%
3 | 110 to 115 °C | FC(F)(F)c1nc(-c2ccc(-c3ccnc(Cl)c3)cc2)no1 [Compound D-26, 3-[4-(2-chloro-4-pyridyl)phenyl]-5-(trifluoromethyl)-1,2,4-oxadiazole] | ≥ 80% | ≥ 80% | ≥ 80% | ≥ 80%

Reference: US11083196B2, “Microbiocidal oxadiazole derivatives” (SYNGENTA PARTICIPATIONS AG, priority 2016, dated 2021)
